Results published in publication PMC4827027, “Fungal naphtho-γ-pyrones: Potent antibiotics for drug-resistant microbial pathogens” (Scientific Reports, 2016).
Values after ≈ are worked out from the molar mass of the structure shown.

How the values were obtained:
[1] = tested on: MRSA (S. aureus ATCC 43300); assay: Broth microdilution MIC, MRSA ATCC 43300; settings: for MIC: Staphylococcus aureus, ATCC43300|MRSA, 24 h, read-out: Minimum inhibitory concentrations, S. aureus ATCC 43300
E. coli ATCC 25922 = assay: Broth microdilution MIC, E. coli ATCC 25922; settings: for MIC: Escherichia coli, ATCC25922, 24 h, read-out: Minimum inhibitory concentrations, E. coli ATCC 25922
E. faecalis (ATCC 29212) = assay: Broth microdilution MIC, E. faecalis ATCC 29212; settings: Enterococcus faecalis, ATCC29212, 24 h, read-out: Minimum inhibitory concentrations, E. faecalis ATCC 29212
E. coli FabI [2] = molecular target: T1, E. coli FabI (Escherichia coli, UniProt P0AEK4); assay: Microscale thermophoresis (MST) binding to FabI; settings: for Dissociation constant with E. coli FabI, Kd: MST, means ± SD for three experiments, n.i. is no clear binding detected in the MST measurement
T1 sequence (P0AEK4 whole entry): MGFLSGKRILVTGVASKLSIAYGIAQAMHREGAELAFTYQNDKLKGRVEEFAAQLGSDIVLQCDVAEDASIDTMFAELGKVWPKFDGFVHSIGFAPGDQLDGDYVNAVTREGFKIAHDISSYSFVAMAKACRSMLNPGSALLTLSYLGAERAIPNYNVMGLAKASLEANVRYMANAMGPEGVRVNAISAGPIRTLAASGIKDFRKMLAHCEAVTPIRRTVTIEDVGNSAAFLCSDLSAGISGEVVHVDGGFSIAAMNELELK

E. coli FabI [3] = molecular target: T1, E. coli FabI; assay: FabI inhibition IC50 assay (crotonoyl-CoA/NADH); settings: for Inhibitory activities against E. coli FabI, IC50: 50 μM crotonoyl-CoA, 100 μM NADH, n.i. is no inhibition detected (IC50 > 1 mM)
[4] = tested on: P. aeruginosa (ATCC 27853); assay: Broth microdilution MIC, P. aeruginosa ATCC 27853; settings: Pseudomonas aeruginosa, ATCC27853, 24 h, read-out: Minimum inhibitory concentrations, P. aeruginosa ATCC 27853
[5] = tested on: K. pneumoniae (ATCC 700603); assay: Broth microdilution MIC, K. pneumoniae ATCC 700603; settings: for MIC: Klebsiella pneumoniae, ATCC700603, 24 h, read-out: Minimum inhibitory concentrations, K. pneumoniae ATCC 700603
[6] = tested on: ESBL-producing E. coli (ATCC 35218); assay: Broth microdilution MIC, ESBL-producing E. coli ATCC 35218; settings: Escherichia coli, ATCC35218, 24 h, read-out: Minimum inhibitory concentrations, E. coli ATCC 35218

Row | Compound | MIC [1] [µg/mL] | MIC (E. coli ATCC 25922) [µg/mL] | MIC (E. faecalis (ATCC 29212)) [µg/mL] | Kd (E. coli FabI [2]) [µM] | IC50 (E. coli FabI [3]) [µM] | MIC [4] [µg/mL] | MIC [5] [µg/mL] | MIC [6] [µg/mL] | Dissociation constant with E. coli FabI, Kd (E. coli FabI [2]) | Inhibitory activities against E. coli FabI, IC50 (E. coli FabI [3]) | Antibacterial activity against S. aureus (in words) [1] | Antibacterial activity against E. coli (in words) (E. coli ATCC 25922) | Inhibition of K. pneumonia (in words) [5]
1 | COc1cc(OC)c2c(O)c3c(=O)cc(C)oc3c(-c3c(OC)cc4cc5oc(C)cc(=O)c5c(O)c4c3OC)c2c1 [Compound 6, Aurasperone A] | 34.1 (≈ 59.7 µM) | 4.26 (≈ 7.47 µM) | 17 (≈ 29.9 µM) | 289 ± 31.1 | 52.1 | 34.1 (≈ 59.7 µM) | ≥ 100 | 8.52 (≈ 14.9 µM) |  |  |  |  | 
2 | COc1cc(OC)c2c(c1)c(-c1c(OC)cc3cc4oc(C)cc(=O)c4c(O)c3c1OC)c(O)c1c(=O)cc(C)oc12 [Compound 8, Asperpyrone C] | ≥ 100 | 17 (≈ 29.9 µM) | ≥ 100 |  |  | ≥ 100 | 68.2 (≈ 119 µM) | 17 (≈ 29.9 µM) | ^bn.i. | ^cn.i. |  |  | 
3 | COc1cc(OC)c2c(O)c3c(=O)cc(C)oc3cc2c1 [Compound 5, Rubrofusarin B] | ≥ 100 | 8.52 (≈ 29.8 µM) | 68.2 (≈ 238 µM) |  |  | ≥ 100 | 68.2 (≈ 238 µM) | 17 (≈ 59.5 µM) | ^bn.i. | ^cn.i. |  |  | 
4 | CO/N=C(\C(=O)N[C@@H]1C(=O)N2C(C(=O)O)=C(CSc3nc(=O)c(=O)[nH]n3C)CS[C@H]12)c1csc(N)n1 [Ceftriaxone, reference compound] |  | 2.13 (≈ 3.84 µM) |  |  |  | 2.13 (≈ 3.84 µM) | 2.13 (≈ 3.84 µM) | 8.52 (≈ 15.4 µM) |  |  |  |  | 
5 | COc1cc(OC)c2c(O)c3c(c(-c4c(OC)cc5cc6oc(C)cc(=O)c6c(O)c5c4OC)c2c1)OC(C)(O)CC3=O (centres unmarked) [Compound 4, Fonsecinone B] | ≥ 100 | 17 (≈ 29 µM) | ≥ 100 |  | 111 | ≥ 100 | 34.1 (≈ 57.9 µM) | 17 (≈ 29 µM) | ^bn.i. |  |  |  | 
6 | COc1cc(OC)c2c(c1)cc(O)c1c(=O)cc(C)oc12 [Compound 1, Flavasperone] | ≥ 100 | 8.52 (≈ 29.8 µM) | 68.2 (≈ 238 µM) |  | 110 | 68.2 (≈ 238 µM) | ≥ 100 | 8.52 (≈ 29.8 µM) | ^bn.i. |  |  |  | 
7 | NCC[C@H](O)C(=O)N[C@@H]1C[C@H](N)[C@@H](O[C@H]2O[C@H](CN)[C@@H](O)[C@H](O)[C@H]2O)[C@H](O)[C@H]1O[C@H]1O[C@H](CO)[C@@H](O)[C@H](N)[C@H]1O [Amikacin, reference compound] |  | 2.13 (≈ 3.64 µM) |  |  |  | 2.13 (≈ 3.64 µM) | 8.52 (≈ 14.5 µM) | 4.26 (≈ 7.27 µM) |  |  |  |  | 
8 | COc1cc(OC)c2c(O)c3c(=O)cc(C)oc3c(-c3c(OC)cc4cc5c(c(O)c4c3OC)C(=O)CC(C)(O)O5)c2c1 (centres unmarked) [Compound 7, Aurasperone E] | 68.2 (≈ 116 µM) | 8.52 (≈ 14.5 µM) | 17 (≈ 29 µM) | 329 ± 29.7 | 71.8 | 34.1 (≈ 57.9 µM) | ≥ 100 | 8.52 (≈ 14.5 µM) |  |  |  |  | 
9 | CN[C@H](CC(C)C)C(=O)N[C@H]1C(=O)N[C@@H](CC(N)=O)C(=O)N[C@H]2C(=O)N[C@H]3C(=O)N[C@H](C(=O)N[C@H](C(=O)O)c4cc(O)cc(O)c4-c4cc3ccc4O)[C@H](O)c3ccc(c(Cl)c3)Oc3cc2cc(c3O[C@@H]2O[C@H](CO)[C@@H](O)[C@H](O)[C@H]2O[C@H]2C[C@](C)(N)[C@H](O)[C@H](C)O2)Oc2ccc(cc2Cl)[C@H]1O [Vancomycin, reference compound] | 0.53 (≈ 0.366 µM) |  | 0.53 (≈ 0.366 µM) |  |  |  |  |  |  |  |  |  | 
10 | COc1cc(OC)c2c(O)c3c(c(-c4c(OC)cc5cc(O)c6c(=O)cc(C)oc6c5c4OC)c2c1)OC(C)(O)CC3=O (centres unmarked) [Compound 3, Fonsecinone C] | 34.1 (≈ 57.9 µM) | 2.13 (≈ 3.62 µM) | 17 (≈ 29 µM) | 270 ± 9.1 | 3 | 17 (≈ 29 µM) | ≥ 100 | 4.26 (≈ 7.24 µM) |  |  | moderate antibacterial activities | moderate antibacterial activities | no obvious inhibition
11 | COc1cc(OC)c2c(O)c3c(=O)cc(C)oc3c(-c3c(OC)cc4cc(O)c5c(=O)cc(C)oc5c4c3OC)c2c1 [Compound 2, Fonsecinone A] | 34.1 (≈ 59.7 µM) | 2.13 (≈ 3.73 µM) | 4.26 (≈ 7.47 µM) | 215 ± 28.8 | 2.7 | 17 (≈ 29.9 µM) | ≥ 100 | 4.26 (≈ 7.47 µM) |  |  | moderate antibacterial activities | moderate antibacterial activities | no obvious inhibition
